Results from ChEMBL document CHEMBL1136846, “Investigation on the role of the tetrazole in the binding of thiotetrazolylacetanilides with HIV-1 wild type and K103N/Y181C double mutant reverse transcriptases” (Bioorg Med Chem Lett, 2009).
pEC50, pIC50: −log10 of the molar value.

Key:
[1] = biological target: Human immunodeficiency virus type 1 reverse transcriptase (Human immunodeficiency virus 1, UniProt Q72547); assay: Inhibition of wild type HIV1 reverse transcriptase by scintillation proximity assay
[2] = system: Human immunodeficiency virus 1; assay: Antiviral activity against HIV1 with transcriptase […] mutation infected in human C8166 cells assessed as inhibition of viral replication after 3 days by ELISA; assay type: functional, organism-based; settings: Human immunodeficiency virus 1, C8166, 72 h
[3] = system: Human immunodeficiency virus 1; assay: Antiviral activity against HIV1 infected in human C8166 cells assessed as inhibition of viral replication after 3 days by ELISA; assay type: functional, organism-based; settings: Human immunodeficiency virus 1, C8166, 72 h

Row | SMILES | pIC50 [1] | pEC50 [2] | pEC50 [3]
1 | Cc1ccc(-n2nnnc2SCC(=O)Nc2ccc(-c3ccc(OCC(=O)O)cc3)cc2Cl)c(Cl)c1 | 8.72 | – | –
2 | Cc1[nH]nc(OCC(=O)Nc2ccc(-c3ccc(CC(=O)O)cc3)cc2Cl)c1-c1ccc(C(C)(C)C)cc1Cl | 5.68 | – | –
3 | Cc1ccc(-n2cc(C)nc2SCC(=O)Nc2ccccc2Cl)c(Cl)c1 | < 6.00 | – | –
4 | Cc1[nH]nc(OCC(=O)Nc2ccc(C#CC(C)(C)C(=O)O)cc2Cl)c1-c1ccc(C(C)(C)C)cc1Cl | 5.62 | 7.14 | 5.41
5 | Cc1ccc(-c2ccccc2OCC(=O)Nc2ccc(-c3ccc(CC(=O)O)cc3)cc2Cl)c(Cl)c1 | 6.75 | – | –
6 | Cc1ccc(-c2c(SCC(=O)Nc3ccc(-c4ccc(CC(=O)O)cc4)cc3Cl)cnn2C)c(Cl)c1 | 8.72 | – | –
7 | Cc1ccc(-c2c(SCC(=O)Nc3ccc(-c4ccc(OCC(=O)O)cc4)cc3Cl)ccn2C)c(Cl)c1 | < 6.00 | – | –
8 | Cc1ccc(-n2c(C)cnc2SCC(=O)Nc2ccc(-c3ccc(CC(=O)O)cc3)cc2Cl)c(Cl)c1 | 8.02 | – | –
9 | Cc1ccc(-c2nnsc2SCC(=O)Nc2ccc(-c3ccc(CC(=O)O)cc3)cc2Cl)c(Cl)c1 | 8.70 | – | –
10 | Cc1ccc(-c2ncsc2SCC(=O)Nc2ccc(-c3ccc(CC(=O)O)cc3)cc2Cl)c(Cl)c1 | 6.70 | – | –
11 | C/C(=C/CCC(=O)Nc1ccc(-c2ccc(OCC(=O)O)cc2)cc1Cl)c1ccc(C)cc1Cl | 7.82 | – | –
12 | C/C(=C\CCC(=O)Nc1ccc(-c2ccc(OCC(=O)O)cc2)cc1Cl)c1ccc(C)cc1Cl | 6.57 | – | –
13 | Cc1ccc(-c2ncoc2SCC(=O)Nc2ccc(-c3ccc(CC(=O)O)cc3)cc2Cl)c(Cl)c1 | 6.44 | – | –
14 | CC(C)(C)c1ccc(-c2c[nH]nc2OCC(=O)Nc2ccc(-c3ccc(CC(=O)O)cc3)cc2Cl)c(Cl)c1 | < 5.48 | 6.35 | 5.31
15 | Cc1ccc(-n2nccc2SCC(=O)Nc2ccc(-c3ccc(CC(=O)O)cc3)cc2Cl)c(Cl)c1 | 8.10 | – | –
16 | Cc1ccc(-n2ncc(C)c2SCC(=O)Nc2ccc(-c3ccc(CC(=O)O)cc3)cc2Cl)c(Cl)c1 | < 5.00 | – | –
17 | Cc1ccc(-n2nccc2OCC(=O)Nc2ccc(-c3ccc(CC(=O)O)cc3)cc2Cl)c(Cl)c1 | 7.74 | – | –
18 | Cc1ccc(-c2ccccc2SCC(=O)Nc2ccc(-c3ccc(CC(=O)O)cc3)cc2Cl)c(Cl)c1 | 7.74 | – | –
19 | Cc1ccc(-n2nncc2SCC(=O)Nc2ccc(-c3ccc(CC(=O)O)cc3)cc2Cl)c(Cl)c1 | 8.62 | – | –
20 | Cc1[nH]nc(OCC(=O)Nc2ccc(C#CC(C)(C)CO)cc2Cl)c1-c1ccc(C(C)(C)C)cc1Cl | < 5.48 | 6.75 | < 5.30
21 | C/C(=C/CCC(=O)Nc1ccc(-c2ccc(CC(=O)O)cc2)cc1Cl)c1ccc(C)cc1Cl | 8.62 | – | –
